Test results from patent publication US20110003858A1, “MULTIMERIC HETEROCYCLIC COMPOUNDS USEFUL AS NEUTROPHIL ELASTASE INHIBITORS” (priority 2006, published 2011).

Molecular target: T1, Human Neutrophil Elastase (HNE) (Homo sapiens, UniProt P08246)
T1 construct: Human Neutrophil Elastase (HNE) purified from serum; purchased Calbiochem 324681; host or cells: natural enzyme purified from human serum (so in the source)
T1 sequence (P08246 30-247 limits assumed): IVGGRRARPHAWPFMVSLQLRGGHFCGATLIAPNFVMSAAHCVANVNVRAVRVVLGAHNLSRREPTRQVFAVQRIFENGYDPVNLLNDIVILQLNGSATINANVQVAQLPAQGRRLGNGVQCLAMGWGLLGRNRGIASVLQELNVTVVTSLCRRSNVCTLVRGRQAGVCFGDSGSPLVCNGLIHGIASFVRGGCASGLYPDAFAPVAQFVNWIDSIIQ
Experiment: Human Neutrophil Elastase Quenched-FRET Assay
Type: biochemical
Settings: HNE 1.7 nM, substrate MeOSuc-AAPV-AMC 100 μM, pH 7.5; read-out: Inhibition of HNE IC50
Description: Human Neutrophil Elastase Quenched-FRET Assay
The assay uses Human Neutrophil Elastase (HNE) purified from serum (Calbiochem art. 324681; Ref. Baugh, R. J. et al., 1976, Biochemistry. 15, 836-841). HNE was stored in 50 mM sodium acetate (NaOAc), 200 mM sodium chloride (NaCl), pH 5.5 with added 30% glycerol at −20° C. The protease substrate used was Elastase Substrate V Fluorogenic, MeOSuc-AAPV-AMC (Calbiochem art. 324740; Ref. Castillo, M. J. et al., 1979, Anal. Biochem. 99, 53-64). The substrate was stored in dimethyl sulphoxide (DMSO) at −20° C. The assay additions were as follows: Test compounds and controls were added to black 96-well flat-bottom plates (Greiner 655076), 1 μL in 100% DMSO, followed by 30 μL HNE in assay buffer with 0.01% Triton (trade mark) X-100 detergent. The assay buffer constitution was: 100 mM Tris(hydroxymethyl)aminomethane (TRIS) (pH 7.5) and 500 mM NaCl. The enzyme and the compounds were incubated at room temperature for 15 minutes. Then 30 μl substrate in assay buffer was added. The assay was incubated for 30 minutes at room temperature. The concentrations of HNE enzyme and substrate during the incubation were 1.7 nM and 100 μM, respectively. […] Fluorescence was measured on a Wallac 1420 Victor 2 instrument at settings: Excitation 380 nm, Emission 460 nm. IC50 values were determined using Xlfit curve fitting using model 205.

IC50 [nM] | Compound
0.61 | Cc1c([S+]([O-])c2ccc(C#N)cc2)cc(C(=O)NCCOCCOCCNC(=O)c2cc([S+]([O-])c3ccc(C#N)cc3)c(C)n(-c3cccc(C(F)(F)F)c3)c2=O)c(=O)n1-c1cccc(C(F)(F)F)c1 (centres unmarked) [Example 1]
0.26 | Cc1c(-c2ccnn2-c2ccc(C#N)cc2)cc(C(=O)NCC(O)CNC(=O)c2cc(-c3ccnn3-c3ccc(C#N)cc3)c(C)n(-c3cccc(C(F)(F)F)c3)c2=O)c(=O)n1-c1cccc(C(F)(F)F)c1 [Example 2, N,N′-(2-Hydroxypropane-1,3-diyl)bis(5-(1-(4-cyanophenyl)-1H-pyrazol-5-yl)-6-methyl-2-oxo-1-(3-(trifluoromethyl)phenyl)-1,2-dihydropyridine-3-carboxamide)]
